Experimental data published in patent US11464780B2, “Pyrazolopyrimidine derivative and use thereof” (Simcere Pharmaceutical Co. Ltd., priority 2018, dated 2022).
One block for each compound: values may come before it.

Key:
[1] = tested on: human colon cancer cell line KM12 subcutaneous xenograft tumor; experiment: In vivo efficacy, subcutaneous xenograft tumor of human colon cancer KM12; design: species or system BALB/c mouse; details: PO
Method: Experimental object: evaluation of the in vivo efficacy of test drugs such as WX002A on subcutaneous xenograft tumor of human colon cancer cell line KM12 cell in BALB/c mouse model.
(§1) Drug preparation: The compounds were all prepared into clear solutions with 5% DMSO+10% solutol+85% water as solvent for administration in the PO (intragastric) group.
(§2) Tumor measurement: the tumor diameters were measured with a vernier caliper twice a week. The calculation formula of tumor volume is: V=0.5×a×b^2, wherein a and b represent the long diameter and short diameter of the tumor, respectively. The anti-tumor efficacy of the compounds is evaluated by TGI (%). TGI (%) reflects tumor growth inhibition rate.
Statistical analysis: The statistical analysis was based on the relative tumor volume and tumor weight at the end of the experiment using SPSS software. One-way ANOVA was used to analyze the comparison between multiple groups. […] P<0.05 was considered to indicate significant difference.

[2] = target: T1, Ba/F3 LMNA-NTRK1-F589L stably transfected cell line (Homo sapiens, UniProt P04629, F589L, cells depend on it); experiment: Cell proliferation inhibition (CellTiter-Glo); type: cell-based; details: 72 hours, read-out: The half maximal inhibitory concentration IC50 against cells, Ba/F3 LMNA-NTRK1-F589L
T1 construct: fused on or other part: P02545 (Prelamin-A/C)

[3] = target: T2, BaF3 ETV6-NTRK3-G623R stably transfected cell line (Homo sapiens, UniProt Q16288, G623R, cells depend on it); experiment: Cell proliferation inhibition (CellTiter-Glo); type: cell-based; details: 72 hours, read-out: The half maximal inhibitory concentration IC50 against cells, BaF3 ETV6-NTRK3-G623R
T2 construct: fused on or other part: P41212 (Transcription factor ETV6)

[4] = In vivo cassette pharmacokinetic test in mice; design: species or system male CD-1 mice; details: cassette, mice
Method: The dose of the compounds: […] PO dose of 3 mg/kg, and administration volume of 3 mL/kg.

[5] = target: T3, Ba/F3 SLC34A2-ROS1-WT stably transfected cell line (Homo sapiens, UniProt P08922); experiment: Cell proliferation inhibition (CellTiter-Glo); type: cell-based; details: 72 hours, read-out: The half maximal inhibitory concentration IC50 against cells, Ba/F3 SLC34A2-ROS1-WT
T3 construct: fused on or other part: O95436 (Sodium-dependent phosphate transport protein 2B)

[6] = tested on: human lung cancer LU-01-0414 subcutaneous xenograft tumor; experiment: In vivo efficacy, subcutaneous xenograft tumor of human lung cancer LU-01-0414; design: species or system BALB/c mouse; details: LU-01-0414 xenograft, 14th day, PO
Method: Experimental object: evaluation of the in vivo efficacy of test drugs such as WX002A on subcutaneous xenograft tumor of human lung cancer LU-01-0414 in BALB/c mouse model.
as §1
as §2, with “compounds was” for “compounds is”
Statistical analysis: the statistical analysis was based on the relative tumor volume and tumor weight at the end of the experiment using SPSS software. One-way ANOVA was used to analyze the comparison between multiple groups. […] P<0.05 was considered to indicate significant difference.

[7] = target: T4, Ba/F3 SLC34A2-ROS1-G2032R stably transfected cell line (Homo sapiens, UniProt P08922, G2032R, cells depend on it); experiment: Cell proliferation inhibition (CellTiter-Glo); type: cell-based; details: 72 hours, read-out: The half maximal inhibitory concentration IC50 against cells, Ba/F3 SLC34A2-ROS1-G2032R
T4 construct: fused on or other part: O95436 (Sodium-dependent phosphate transport protein 2B)
T4 sequence (P08922 whole entry G2032R, the tested form may be a part): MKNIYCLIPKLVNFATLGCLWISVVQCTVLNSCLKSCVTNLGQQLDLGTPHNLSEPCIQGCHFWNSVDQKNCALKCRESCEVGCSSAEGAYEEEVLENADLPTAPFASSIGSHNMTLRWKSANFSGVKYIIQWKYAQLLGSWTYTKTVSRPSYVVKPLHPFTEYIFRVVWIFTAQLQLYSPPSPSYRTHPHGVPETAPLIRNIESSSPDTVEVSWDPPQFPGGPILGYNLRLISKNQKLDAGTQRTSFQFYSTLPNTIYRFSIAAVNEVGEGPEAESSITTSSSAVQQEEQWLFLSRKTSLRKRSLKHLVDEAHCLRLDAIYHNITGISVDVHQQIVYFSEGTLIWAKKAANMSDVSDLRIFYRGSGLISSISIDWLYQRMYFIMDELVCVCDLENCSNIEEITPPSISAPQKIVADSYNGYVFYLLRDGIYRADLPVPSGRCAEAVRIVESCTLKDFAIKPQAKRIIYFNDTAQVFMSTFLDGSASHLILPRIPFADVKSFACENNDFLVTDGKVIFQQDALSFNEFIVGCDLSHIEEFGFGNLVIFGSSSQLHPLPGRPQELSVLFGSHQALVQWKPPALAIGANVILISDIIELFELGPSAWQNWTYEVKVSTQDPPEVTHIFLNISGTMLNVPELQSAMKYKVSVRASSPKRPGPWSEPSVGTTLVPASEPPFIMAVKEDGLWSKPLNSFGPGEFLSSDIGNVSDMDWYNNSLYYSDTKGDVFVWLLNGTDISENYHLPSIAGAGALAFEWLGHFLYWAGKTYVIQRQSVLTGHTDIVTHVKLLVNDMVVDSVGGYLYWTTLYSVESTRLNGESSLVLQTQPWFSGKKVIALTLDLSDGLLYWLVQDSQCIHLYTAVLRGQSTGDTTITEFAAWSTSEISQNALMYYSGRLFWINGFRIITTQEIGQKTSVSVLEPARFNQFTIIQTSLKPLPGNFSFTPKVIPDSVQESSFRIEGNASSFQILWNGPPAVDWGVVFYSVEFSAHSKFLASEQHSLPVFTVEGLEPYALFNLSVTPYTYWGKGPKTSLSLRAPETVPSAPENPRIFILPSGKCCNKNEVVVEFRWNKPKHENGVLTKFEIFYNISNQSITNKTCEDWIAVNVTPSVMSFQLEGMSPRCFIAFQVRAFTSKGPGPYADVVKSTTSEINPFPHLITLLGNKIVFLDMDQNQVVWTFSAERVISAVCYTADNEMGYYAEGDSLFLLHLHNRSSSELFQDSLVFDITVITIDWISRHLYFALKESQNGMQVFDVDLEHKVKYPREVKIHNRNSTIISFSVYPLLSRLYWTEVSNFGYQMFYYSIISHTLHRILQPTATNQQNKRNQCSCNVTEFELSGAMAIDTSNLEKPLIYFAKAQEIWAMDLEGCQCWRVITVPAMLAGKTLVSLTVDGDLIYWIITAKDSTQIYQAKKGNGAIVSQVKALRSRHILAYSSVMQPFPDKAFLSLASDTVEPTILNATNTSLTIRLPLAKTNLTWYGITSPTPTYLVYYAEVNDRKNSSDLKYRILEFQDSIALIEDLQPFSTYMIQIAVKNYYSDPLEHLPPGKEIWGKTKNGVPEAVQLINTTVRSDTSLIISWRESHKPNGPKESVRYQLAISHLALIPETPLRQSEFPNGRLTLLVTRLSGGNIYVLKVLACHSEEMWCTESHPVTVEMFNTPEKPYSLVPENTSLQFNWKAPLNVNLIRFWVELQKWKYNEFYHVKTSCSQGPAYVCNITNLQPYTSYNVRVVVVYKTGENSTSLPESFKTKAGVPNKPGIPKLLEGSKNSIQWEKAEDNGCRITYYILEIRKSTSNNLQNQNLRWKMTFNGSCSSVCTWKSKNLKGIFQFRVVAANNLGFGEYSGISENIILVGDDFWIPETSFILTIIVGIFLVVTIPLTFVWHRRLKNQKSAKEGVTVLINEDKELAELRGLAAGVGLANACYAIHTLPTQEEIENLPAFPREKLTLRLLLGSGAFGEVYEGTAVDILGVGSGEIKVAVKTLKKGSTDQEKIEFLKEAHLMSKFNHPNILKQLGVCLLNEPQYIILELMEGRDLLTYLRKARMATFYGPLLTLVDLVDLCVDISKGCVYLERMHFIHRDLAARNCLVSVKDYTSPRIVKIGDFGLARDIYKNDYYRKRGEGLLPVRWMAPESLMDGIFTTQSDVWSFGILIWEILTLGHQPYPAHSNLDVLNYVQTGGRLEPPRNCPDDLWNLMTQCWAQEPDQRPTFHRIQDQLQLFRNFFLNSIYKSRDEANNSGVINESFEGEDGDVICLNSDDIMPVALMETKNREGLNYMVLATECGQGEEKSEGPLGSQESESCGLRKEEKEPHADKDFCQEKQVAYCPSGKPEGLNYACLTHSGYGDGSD

T3 sequence (P08922 whole entry, stated change not applied, the tested form may be a part): as the sequence (P08922 whole entry G2032R, the tested form may be a part) above, with R2032G counted along it
T2 sequence (Q16288 whole entry G623R, the tested form may be a part): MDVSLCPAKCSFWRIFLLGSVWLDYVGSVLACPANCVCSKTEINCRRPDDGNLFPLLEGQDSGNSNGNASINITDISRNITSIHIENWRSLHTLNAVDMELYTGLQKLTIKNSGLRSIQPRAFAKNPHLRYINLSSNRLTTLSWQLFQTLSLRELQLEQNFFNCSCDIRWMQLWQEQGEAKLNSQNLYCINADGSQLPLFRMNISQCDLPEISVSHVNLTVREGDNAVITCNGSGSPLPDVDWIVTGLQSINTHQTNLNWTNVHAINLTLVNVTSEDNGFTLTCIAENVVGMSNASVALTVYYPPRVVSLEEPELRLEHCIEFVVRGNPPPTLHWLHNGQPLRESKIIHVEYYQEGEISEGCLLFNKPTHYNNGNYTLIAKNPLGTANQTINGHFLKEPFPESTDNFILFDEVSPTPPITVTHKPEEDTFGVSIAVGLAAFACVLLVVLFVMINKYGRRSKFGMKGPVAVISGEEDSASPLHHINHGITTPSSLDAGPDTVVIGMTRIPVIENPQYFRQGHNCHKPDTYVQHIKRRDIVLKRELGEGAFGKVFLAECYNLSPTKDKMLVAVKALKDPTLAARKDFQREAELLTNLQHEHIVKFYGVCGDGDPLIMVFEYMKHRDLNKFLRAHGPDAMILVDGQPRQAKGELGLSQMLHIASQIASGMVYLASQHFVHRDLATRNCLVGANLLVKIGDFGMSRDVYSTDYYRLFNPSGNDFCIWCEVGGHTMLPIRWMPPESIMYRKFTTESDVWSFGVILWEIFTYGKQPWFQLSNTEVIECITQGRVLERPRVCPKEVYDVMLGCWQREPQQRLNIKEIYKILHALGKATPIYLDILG
T1 sequence (P04629 whole entry F589L, the tested form may be a part): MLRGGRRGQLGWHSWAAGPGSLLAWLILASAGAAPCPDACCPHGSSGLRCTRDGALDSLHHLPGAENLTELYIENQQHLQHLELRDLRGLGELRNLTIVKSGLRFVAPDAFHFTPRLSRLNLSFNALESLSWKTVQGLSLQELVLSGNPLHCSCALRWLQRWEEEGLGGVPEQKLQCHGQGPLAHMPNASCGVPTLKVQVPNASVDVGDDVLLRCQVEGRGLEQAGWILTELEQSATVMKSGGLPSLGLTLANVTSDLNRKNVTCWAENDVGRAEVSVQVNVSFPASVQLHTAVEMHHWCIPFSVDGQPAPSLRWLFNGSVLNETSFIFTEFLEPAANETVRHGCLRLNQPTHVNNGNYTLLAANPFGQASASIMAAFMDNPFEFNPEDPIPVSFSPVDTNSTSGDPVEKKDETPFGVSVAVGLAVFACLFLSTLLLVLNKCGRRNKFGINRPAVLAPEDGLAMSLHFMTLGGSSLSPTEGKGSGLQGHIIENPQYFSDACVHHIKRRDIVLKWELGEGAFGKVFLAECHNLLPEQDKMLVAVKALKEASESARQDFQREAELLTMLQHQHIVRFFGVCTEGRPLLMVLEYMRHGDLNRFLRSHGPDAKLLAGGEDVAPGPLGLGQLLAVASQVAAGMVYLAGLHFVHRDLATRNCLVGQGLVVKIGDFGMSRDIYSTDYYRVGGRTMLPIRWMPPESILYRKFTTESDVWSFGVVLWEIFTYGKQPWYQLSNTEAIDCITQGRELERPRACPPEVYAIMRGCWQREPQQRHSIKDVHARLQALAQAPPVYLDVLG

GI50 [2]: 0.78 nM
GI50 [3]: 3.4 nM
Apparent clearance Cl ([4]; IV @ 1 mpk): 0.378 L/h/kg
Apparent volume of distribution Vd ([4]; IV @ 1 mpk): 0.57 L/kg
Area under curve AUC0-inf ([4]; IV @ 1 mpk): 6.689 µM·h
Half life T1/2 ([4]; IV @ 1 mpk): 52.8 min
C0 ([4]; IV @ 1 mpk, plasma, read-out: Initial concentration C0): 3.71 µM
Bioavailability F % ([4]; PO @ 3 mpk vs IV @ 1 mpk): 76%
Area under curve AUC0-inf ([4]; PO @ 3 mpk): 19.769 µM·h
Time of peak concentration Tmax ([4]; PO @ 3 mpk): 15 min
drug concentration in cerebrospinal fluid at 0.5 hour CSF@0.5 h ([4]; PO @ 3 mpk, CSF, 0.5 h): 63 nmol/kg
drug concentration in cerebrospinal fluid at 2 hour CSF@2 h ([4]; PO @ 3 mpk, CSF, 2 h): 21 nmol/kg
drug concentration in brain at 0.5 h Brain@0.5 h ([4]; PO @ 3 mpk, brain, 0.5 h): 663 nmol/kg
drug concentration in brain at 2 h Brain@2 h ([4]; PO @ 3 mpk, brain, 2 h): 343 nmol/kg
Cmax ([4]; PO @ 3 mpk, read-out: Peak concentration Cmax): 4.74 µM
GI50 [5]: 2.53 nM
GI50 [7]: 16.1 nM
Structure (SMILES): O=C1NC2(CC2)COc2ncc(F)cc2[C@H]2CCON2c2ccn3ncc1c3n2 [WX002A]
T/C ([1]; dose of 3 mg/kg): 33.18%
TGI ([1]; dose of 3 mg/kg): 71.23%
T/C ([1]; dose of 15 mg/kg): 15.63%
TGI ([1]; dose of 15 mg/kg): 88.61%
T/C ([6]; 3 mg/kg BID): 9.57%
TGI ([6]; 3 mg/kg BID): 118.02%
T/C ([6]; 15 mg/kg BID): 3.07%
TGI ([6]; 15 mg/kg BID): 126.88%
T/C ([6]; 30 mg/kg BID): 1.87%
TGI ([6]; 30 mg/kg BID): 128.36%

GI50 [2]: 1.59 nM
GI50 [3]: 3.49 nM
GI50 [5]: 5.45 nM
GI50 [7]: 38.5 nM
Structure (SMILES): O=C1N[C@@H]2COC[C@@H]2Oc2ncc(F)cc2[C@H]2CCON2c2ccn3ncc1c3n2 [WX008A]
